Values of other authors as cited in US3963579A, “Microbiological process for the production of pepstatins” (Sanraku-Ocean Co., Ltd., priority 1973, dated 1976).
Square brackets hold non-standard residues; d marks the D form. Peptide text beside a SMILES is read from it. * marks the point of attachment. Sta = CC(C)C[C@H](N)[C@@H](O)CC(=O)O; Isovaleryl = CC(C)CC(=O)*

Conditions: clinical, reported

Structure (SMILES): CC(C)CC(=O)N[C@H](C(=O)N[C@H](C(=O)N[C@@H](CC(C)C)[C@@H](O)CC(=O)N[C@@H](C)C(=O)N[C@@H](CC(C)C)[C@@H](O)CC(=O)O)C(C)C)C(C)C [pepstatin A] (Isovaleryl-VV[Sta]A[Sta]-OH)
- effect on gastric ulcers clinically: takes effect on gastric ulcers clinically
